Assay results from US20170231928A1, “SOLID COMPOSITION OF FINGOLIMOD AND PREPARATION THEREOF” (SUNSHINE LAKE PHARMA CO., LTD., priority 2014, published 2017).

Assay: Excipient compatibility test: API and diluents, related substances
Format: physicochemical
Description: Some API and excipients mixture were weighed, placed in the vials, added with appropriate amount of purified water (w/w), and then sealed (simulated hot and humid environment) and placed in 60° C. oven. Sampled on the 10th day, and tested the content (%) of the related substances (single impurity and total impurities).

[1] = After 10 days (60° C.), water added, sealed

With `CCCCCCCCc1ccc(CCC(N)(CO)CO)cc1` [API, 2-amino-2-[2-(4-octylphenyl)ethyl]propan-1,3-diol] the “Related substances RRT = 0.84” value (0 day) was 0.06%, the “Related substances Total impurities” value (0 day) was 0.06% and the “Related substances RRT = 0.84” value [1] was 0.07%. For the same compound, the “Related substances RRT = 1.35” value [1] was 0.03% and the “Related substances Total impurities” value [1] was 0.10%.
